What was measured:
[1] = Stability evaluation of solution formulation (Experimental Example 2); type: physicochemical; conditions: for Production rate of Alvocidib / Residual rate: solution formulation
Experimental: For Example 1, Example 2, Example 5, Example 6, Comparative Example 13 and Comparative Example 14, the attrition rate of the test compound and the conversion rate of the test compound to Alvocidib in a solution formulation were calculated by the following method.
Example 1, Example 2, Example 5, Example 6, Comparative Example 13 and Comparative Example 14 were each added to buffer solutions adjusted to pH 3.0, 4.0 and 5.0, respectively, at a concentration of 0.1 mg/mL, and left at 5° C. After 0, 1, 2 and 4 weeks, the residual rates of the compounds of Example 1, Example 2, […], Comparative Example 13 and Comparative Example 14 and the production rate of Alvocidib were determined by HPLC.
The buffer solutions used at each pH are as follows. • pH 3.0: 5 mM tartrate buffer solution/10% sucrose solution (pH 3.0) • pH 4.0: 5 mM tartrate buffer solution/10% sucrose solution (pH 4.0) • pH 5.0: 5 mM tartrate buffer solution/10% sucrose solution (pH 5.0)
(§1) The measurement conditions for HPLC are as follows.
• column: Acquity UPLC BEH C18, 1.7 um, 50×2.1 mm • column temperature: 40° C. • mobile phase: • A: water containing 0.1% trifluoroacetic acid • B: acetonitrile • A/B (min): • 80/20(0)→75/25(3)→0/100(3.5)→0/100(4)→80/20(4.01)→80/20(5) • flow rate: 0.8 mL/min • detection: ultraviolet visible detector, measurement wavelength 254 nm • injection: 3 μL

[2] = Evaluation of conversion rate to active form in buffer solution (Experimental Example 1); type: physicochemical
Experimental: For Examples 1 to 16 and Comparative Examples 1 to 14, the attrition rate of the test compound and the conversion rate of the test compound to Alvocidib in a buffer solution were calculated by the following method.
Examples 1 to 16 and Comparative Examples 1 to 14 were each left in buffer solutions adjusted to pH 5.0, 5.5, 6.0, 6.5, 7.0 and 7.4, respectively, at a concentration of 25 umol/L at 37° C. After 0, 0.5, 1, 2 and 3 hours, the residual rates of the compounds of Examples […] and the production rate of Alvocidib were determined by HPLC.
The buffer solutions used at each pH are as follows. • pH 5.0: 50 mM citrate buffer solution (pH 5.0) • pH 5.5: 50 mM citrate buffer solution (pH 5.5) • pH 6.0: 50 mM phosphate buffer solution (pH 6.0) • pH 6.5: 50 mM phosphate buffer solution (pH 6.5) • pH 7.0: 50 mM phosphate buffer solution (pH 7.0) • pH 7.4: 50 mM phosphate buffer solution (pH 7.4)
as §1

CN1CC[C@H](c2c(OC(=O)N(C)CCN)cc(O)c3c(=O)cc(-c4ccccc4Cl)oc23)[C@H](O)C1 [Comparative Example 13, reference compound]
Stability / conversion to Alvocidib in solution formulation at pH 3 ([1]; pH 3, 5° C., up to 4 weeks): stable | Stability / conversion to Alvocidib in solution formulation at pH 4 ([1]; pH 4, 5° C., up to 4 weeks): gradually converted to Alvocidib | production rate of Alvocidib / converted to Alvocidib ([1]; solution formulation pH 5, 5° C., after 4 weeks): about 40% | Production rate of Alvocidib ([1]; pH3.0, 0 week): 0.1% | Residual rate ([1]; pH3.0, 0 week): 99.6% | Production rate of Alvocidib ([1]; pH3.0, 1 week): 0.2% | Residual rate ([1]; pH3.0, 1 week): 99.3% | Production rate of Alvocidib ([1]; pH3.0, 2 week): 0.3% | Residual rate ([1]; pH3.0, 2 week): 99.5% | Production rate of Alvocidib ([1]; pH3.0, 4 week): 0.6% | Residual rate ([1]; pH3.0, 4 week): 99.1% | Production rate of Alvocidib ([1]; pH4.0, 0 week): 0.2% | Residual rate ([1]; pH4.0, 0 week): 99.4% | Production rate of Alvocidib ([1]; pH4.0, 1 week): 1.2% | Residual rate ([1]; pH4.0, 1 week): 98.1% | Production rate of Alvocidib ([1]; pH4.0, 2 week): 2.2% | Residual rate ([1]; pH4.0, 2 week): 97.4% | Production rate of Alvocidib ([1]; pH4.0, 4 week): 4.8% | Residual rate ([1]; pH4.0, 4 week): 94.4% | Production rate of Alvocidib ([1]; pH5.0, 0 week): 1.4% | Residual rate ([1]; pH5.0, 0 week): 98.1% | Production rate of Alvocidib ([1]; pH5.0, 1 week): 13.7% | Residual rate ([1]; pH5.0, 1 week): 84.3% | Production rate of Alvocidib ([1]; pH5.0, 2 week): 25.3% | Residual rate ([1]; pH5.0, 2 week): 71.7% | Production rate of Alvocidib ([1]; pH5.0, 4 week): 39.4% | Residual rate ([1]; pH5.0, 4 week): 55.9% | Production rate of Alvocidib ([2]; pH5.0, 0 hr): 0.0% | Residual rate ([2]; pH5.0, 0 hr): 99.8% | Stability in buffer solution at pH 5 ([2]; pH 5, 37° C., up to 2 or 3 hours): unstable | Production rate of Alvocidib ([2]; pH5.0, 0.5 hr): 2.2% | Residual rate ([2]; pH5.0, 0.5 hr): 96.0% | Production rate of Alvocidib ([2]; pH5.0, 1 hr): 4.1% | Residual rate ([2]; pH5.0, 1 hr): 94.0% | Production rate of Alvocidib ([2]; pH5.0, 2 hr): 8.3% | Residual rate ([2]; pH5.0, 2 hr): 90.8% | Production rate of Alvocidib ([2]; pH5.0, 3 hr): 12.3% | Residual rate ([2]; pH5.0, 3 hr): 86.5% | Production rate of Alvocidib ([2]; pH5.5, 0 hr): 0.0% | Residual rate ([2]; pH5.5, 0 hr): 98.3% | Production rate of Alvocidib ([2]; pH5.5, 0.5 hr): 6.5% | Residual rate ([2]; pH5.5, 0.5 hr): 91.3% | Production rate of Alvocidib ([2]; pH5.5, 1 hr): 11.9% | Residual rate ([2]; pH5.5, 1 hr): 85.5% | Production rate of Alvocidib ([2]; pH5.5, 2 hr): 22.6% | Residual rate ([2]; pH5.5, 2 hr): 73.9% | Production rate of Alvocidib ([2]; pH5.5, 3 hr): 32.2% | Residual rate ([2]; pH5.5, 3 hr): 64.7% | Production rate of Alvocidib ([2]; pH6.0, 0 hr): 0.0% | Residual rate ([2]; pH6.0, 0 hr): 98.7% | Production rate of Alvocidib ([2]; pH6.0, 0.5 hr): 23.8% | Residual rate ([2]; pH6.0, 0.5 hr): 72.9% | Production rate of Alvocidib ([2]; pH6.0, 1 hr): 40.3% | Residual rate ([2]; pH6.0, 1 hr): 56.3% | Production rate of Alvocidib ([2]; pH6.0, 2 hr): 63.0% | Residual rate ([2]; pH6.0, 2 hr): 30.4% | Production rate of Alvocidib ([2]; pH6.0, 3 hr): 75.5% | Residual rate ([2]; pH6.0, 3 hr): 16.8% | Production rate of Alvocidib ([2]; pH6.5, 0 hr): 0.2% | Residual rate ([2]; pH6.5, 0 hr): 99.5% | Production rate of Alvocidib ([2]; pH6.5, 0.5 hr): 51.7% | Residual rate ([2]; pH6.5, 0.5 hr): 42.2% | Production rate of Alvocidib ([2]; pH6.5, 1 hr): 73.5% | Residual rate ([2]; pH6.5, 1 hr): 20.0% | Production rate of Alvocidib ([2]; pH6.5, 2 hr): 87.1% | Residual rate ([2]; pH6.5, 2 hr): 3.8% | Production rate of Alvocidib ([2]; pH6.5, 3 hr): 90.0% | Residual rate ([2]; pH6.5, 3 hr): 0.9% | Production rate of Alvocidib ([2]; pH7.0, 0 hr): 0.5% | Residual rate ([2]; pH7.0, 0 hr): 97.8% | Production rate of Alvocidib ([2]; pH7.0, 0.5 hr): 82.2% | Residual rate ([2]; pH7.0, 0.5 hr): 9.3% | Production rate of Alvocidib ([2]; pH7.0, 1 hr): 89.7% | Residual rate ([2]; pH7.0, 1 hr): 1.3% | Production rate of Alvocidib ([2]; pH7.0, 2 hr): 91.0% | Residual rate ([2]; pH7.0, 2 hr): 0.0% | Production rate of Alvocidib ([2]; pH7.0, 3 hr): 91.0% | Residual rate ([2]; pH7.0, 3 hr): 0.0% | Production rate of Alvocidib ([2]; pH7.4, 0 hr): 1.3% | Residual rate ([2]; pH7.4, 0 hr): 97.2% | Production rate of Alvocidib ([2]; pH7.4, 0.5 hr): 90.5% | Residual rate ([2]; pH7.4, 0.5 hr): 0.8% | Production rate of Alvocidib ([2]; pH7.4, 1 hr): 91.2% | Residual rate ([2]; pH7.4, 1 hr): 0.0% | Production rate of Alvocidib ([2]; pH7.4, 2 hr): 91.4% | Residual rate ([2]; pH7.4, 2 hr): 0.0% | Production rate of Alvocidib ([2]; pH7.4, 3 hr): 92.1% | Residual rate ([2]; pH7.4, 3 hr): 0.0%

— patent US12617779B2, “Self degradation-type CDK9 inhibitor prodrug and liposome encapsulating same” (Sumitomo Pharma Co., Ltd., priority 2021, dated 2026)
